Consider one molecule from PMC6277198, “Molecular basis for activation of lecithin:cholesterol acyltransferase by a compound that increases HDL cholesterol” (eLife, 2018).

Changes are numbered by the printed parent chain. Entries after “also recorded” stand apart in the source; their conditions may differ.

One experiment deals with T1, WT LCAT (Homo sapiens, UniProt P04180).
T1 sequence (P04180 25-440): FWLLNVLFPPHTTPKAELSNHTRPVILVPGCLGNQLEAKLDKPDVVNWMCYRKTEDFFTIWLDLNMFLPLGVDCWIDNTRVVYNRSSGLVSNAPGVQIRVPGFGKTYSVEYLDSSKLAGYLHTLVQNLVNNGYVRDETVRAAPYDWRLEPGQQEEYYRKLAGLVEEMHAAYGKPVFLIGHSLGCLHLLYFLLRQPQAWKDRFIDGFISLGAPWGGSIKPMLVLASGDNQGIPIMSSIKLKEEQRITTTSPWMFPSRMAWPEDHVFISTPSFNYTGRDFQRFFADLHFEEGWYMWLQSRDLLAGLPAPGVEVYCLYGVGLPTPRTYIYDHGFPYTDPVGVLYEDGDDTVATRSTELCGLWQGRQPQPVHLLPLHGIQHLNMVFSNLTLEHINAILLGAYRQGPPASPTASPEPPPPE
Kind of experiment: Bio-layer interferometry, LCAT binding to ApoA-I HDLs. To be noted: 10 μM compound 1. How it is done:
A FortéBio Octet RED system was used to measure the binding of LCAT to ApoA-I HDLs. HDLs were prepared with 1,2-dipalmitoyl-sn-glycero-3-phosphocholine (DPPC), 1-palmitoyl-2-oleoyl-sn-glycero-3-phosphocholine (POPC), and 16:0 biotinyl Cap PE in a ratio of 49.5:49.5:1 ([Manthei et al., 2017]). HDLs were diluted 1/20 in assay buffer (1X PBS pH 7.4, 1 mM EDTA, 60 µM fatty acid free bovine serum albumin) and then immobilized on streptavidin tips for 600 s, followed by a wash in assay buffer for 600 s to remove unbound HDLs. The tips were then moved to buffer containing DMSO or compound 1 and allowed to equilibrate for 120 s before a baseline was established for 30 s. […] In order to determine Kd values, the kobs (from association) were determined at each concentration for the fast phase and then plotted against LCAT concentration. The slope of the line was evaluated as kon using the equation kobs = kon[LCAT]+koff and the resultant Kd = koff/kon. For statistical analysis, the kon, koff, and Kd for each replicate was determined individually and the results were compared to WT using a one-way analysis of variance followed by Tukey’s multiple comparisons post-test in GraphPad Prism.
In general terms: In BLI a coated tip is dipped into the sample, and binding shifts an interference pattern.

A further experiment concerns the target T2, LCAT R244A (Homo sapiens, UniProt P04180, R268A).
T2 construct: hydrolysis of 4-methylumbelliferyl palmitate (MUP) by full-length LCAT; made in house; host or cells: HEK293F (transient transfection, secreted)
T2 sequence (P04180 25-440 R268A): T1 sequence (P04180 25-440) with R244A
Kind of experiment: Differential scanning fluorimetry. It is filed as binding. To be noted: addition of compound 1. How it is done:
(§1) Tm values were determined using an Applied Biosystems QuantStudio 7 Flex qPCR machine with two replicates performed at least in triplicate. LCAT at 0.05 mg mL^−1 was diluted into reaction buffer containing 5X Sypro Orange in a final volume of 10 μL in 384-well PCR plates. DMSO or compound 1 was added so that all reactions contained 3% DMSO. The reactions were run from 25–95 °C with a ramp rate of 0.03 °C s^−1. Tm values were determined as the derivative using Protein Thermal Shift software. Significance was determined using a one-way analysis of variance followed by Tukey’s multiple comparisons post-test in GraphPad Prism.
On the technique in general: DSF heats the sample and reads unfolding from a dye or from intrinsic fluorescence.

The target in the next experiment is T3, LCAT R244H (Homo sapiens, UniProt P04180, R268H).
T3 construct: hydrolysis of 4-methylumbelliferyl palmitate (MUP) by full-length LCAT; made in house; host or cells: HEK293F (transient transfection, secreted)
T3 sequence (P04180 25-440 R268H): T1 sequence (P04180 25-440) with R244H
Kind of experiment: Differential scanning fluorimetry. It is filed as binding. Particulars: addition of compound 1. The procedure: as §1

Experiment [1] concerns LCAT Y51S, G71I, and Y51S/G71I variants. Kind of experiment: Differential scanning fluorimetry. It is filed as binding, human. The procedure:
as §1

The target of experiment [2] is T4, LCAT (Homo sapiens, UniProt P04180).
T4 construct: hydrolysis of 4-methylumbelliferyl palmitate (MUP) by full-length LCAT; made in house; host or cells: HEK293F (transient transfection, secreted)
T4 sequence (P04180 25-440): T1 sequence (P04180 25-440)
Kind of experiment: Soluble esterase assay (pNPB). It is filed as biochemical. To be noted: WT LCAT. The procedure: (§2) The esterase assay was performed as previously described ([Glukhova et al., 2015]) at least in triplicate. pNPB was diluted to 10 mM into reaction buffer containing 10% dimethylsulfoxide. The reaction was started by addition of 40 μL 1 μM LCAT containing either 3.2% DMSO or 11.1 μM compound 1 to 10 μL of pNPB. The increase in absorbance at 400 nm was monitored on a Spectramax plate reader for 15 min. Significance was determined using a one-way analysis of variance followed by Tukey’s multiple comparisons post-test in GraphPad Prism.

For experiment [3], the system named is LCAT. Kind of experiment: Soluble esterase assay (pNPB). It counts as biochemical, human. To be noted: any variant of LCAT. The procedure: as §2

As for `N#Cc1cnc(N2CCC(c3n[nH]c4c3C(O)(C(F)(F)F)CC(=O)N4)CC2)cc1C(F)(F)F` (stereo not drawn) [compound 1, 6-(4-(4-Hydroxy-6-oxo-4-(trifluoromethyl)−4,5,6,7-tetrahydro-1H-pyrazolo[3,4-b]pyridin-3-yl)piperidin-1-yl)−4-(trifluoromethyl)nicotinonitrile], the “Effect on LCAT binding to HDL (kon, koff, Kd) in BLI” value at WT LCAT is listed as “does not affect; also recorded: no change”. Besides, the “∆Tm” value was 6.0 ˚C at LCAT R244A and 4.8 ˚C on LCAT R244H. Besides, in experiment [1], the “Increase of Tm compared to WT (DSF)” value was “far less effective”. Moreover, the “Effect on pNPB esterase activity of WT” value on LCAT [2] is “seemed to inhibit”. In the experiment on LCAT [3], the “Stimulation of pNPB esterase activity” value is “did not stimulate”.
